These results are taken from ChEMBL document CHEMBL3352080, “Kojic acid derived hydroxypyridinone-chloroquine hybrids: synthesis, crystal structure, antiplasmodial activity and β-haematin inhibition” (Bioorg Med Chem Lett, 2014).

The subject of data set [1] is Plasmodium falciparum. The data set can be described thus: Antiplasmodial activity against Plasmodium falciparum K1 infected in erythrocytes assessed as [3H]hypoxanthine incorporation after 24 hrs by microbeta scintillation counting analysis. It is filed as functional, organism-based.
Data set [2] in a line: Inhibition of beta-haematin complex formation after 60 mins by spectrophotometry relative to chloroquine. Type of data set: physicochemical.
The test system of data set [3] is Plasmodium falciparum. Briefly: Antiplasmodial activity against Plasmodium falciparum 3D7 infected in erythrocytes assessed as [3H]hypoxanthine incorporation after 24 hrs by microbeta scintillation counting analysis. Type of data set: functional, organism-based.
Data set [4] concerns Plasmodium falciparum. The data set can be described thus: Resistance index, ratio of IC50 for Plasmodium falciparum K1 to IC50 for Plasmodium falciparum 3D7. It is filed as functional.

The structures appear in SMILES notation.

As to `Cn1cc(O)c(=O)cc1CNCCCNc1ccnc2cc(Cl)ccc12`, the IC50 in the data set with Plasmodium falciparum [1] was determined as 360 nM; in data set [2], 6.12 equiv; in the data set with Plasmodium falciparum [3], 120 nM. Also, the Ratio IC50 in the data set with Plasmodium falciparum [4] was 2.2.

On to `CN(CCCNc1ccnc2cc(Cl)ccc12)Cc1cc(=O)c(O)cn1C`, for which the results for the IC50 (in the data set with Plasmodium falciparum [1]; in data set [2]; in the data set on Plasmodium falciparum [3]) were 270 nM, 1.95 equiv and 40 nM, respectively. In addition, the Ratio IC50 in the data set on Plasmodium falciparum [4] is 1.

For the molecule `Cn1cc(O)c(=O)cc1CNCCCCNc1ccnc2cc(Cl)ccc12`, the results for the IC50 in the data set with Plasmodium falciparum [1] and in the data set with Plasmodium falciparum [3] were 720 nM and 670 nM, respectively. For the same molecule, the Ratio IC50 in the data set with Plasmodium falciparum [4] is 0.1.

With `Cn1cc(O)c(=O)cc1CNCCCCCCNc1ccnc2cc(Cl)ccc12`, the IC50 was 970 nM in the data set with Plasmodium falciparum [1], 0.7 equiv in data set [2] and 150 nM with Plasmodium falciparum [3]. The Ratio IC50 in the data set on Plasmodium falciparum [4] was 1.7.

In the case of `O=c1cc(CNCCNc2ccnc3cc(Cl)ccc23)n(C2CC2)cc1O`, the IC50 is 460 nM in the data set on Plasmodium falciparum [1], 1.41 equiv in data set [2] and 300 nM with Plasmodium falciparum [3]. In addition, the Ratio IC50 in the data set on Plasmodium falciparum [4] came out at 1.6.

Regarding `O=c1cc(CNCCCNc2ccnc3cc(Cl)ccc23)n(C2CC2)cc1O`, the IC50 in the data set with Plasmodium falciparum [1] amounted to 850 nM; in data set [2], 2.62 equiv; in the data set with Plasmodium falciparum [3], 160 nM. Besides, the Ratio IC50 with Plasmodium falciparum [4] came out at 3.6.

On to `CN(CCCNc1ccnc2cc(Cl)ccc12)Cc1cc(=O)c(O)cn1C1CC1`, for which the IC50 in the data set with Plasmodium falciparum [1] is 360 nM; in data set [2] it was 5.24 equiv; with Plasmodium falciparum [3] it was 170 nM. The Ratio IC50 in the data set on Plasmodium falciparum [4] stood at 1.5.

With `O=c1cc(CNCCCCNc2ccnc3cc(Cl)ccc23)n(C2CC2)cc1O`, the results for the IC50 (in the data set on Plasmodium falciparum [1]; in data set [2]; with Plasmodium falciparum [3]) were 30 nM, 2.57 equiv and 4 nM, respectively. Also, in the data set on Plasmodium falciparum [4], the Ratio IC50 turned out to be 2.1.

As for `O=c1cc(CNCCCCCCNc2ccnc3cc(Cl)ccc23)n(C2CC2)cc1O`, the figures for the IC50 (in the data set with Plasmodium falciparum [1]; in data set [2]; with Plasmodium falciparum [3]) were 80 nM, 1.39 equiv and 30 nM, respectively. For the same molecule, the “Ratio IC50” value with Plasmodium falciparum [4] amounted to 2.7.

As for `Cn1cc(OCc2ccccc2)c(=O)cc1CNCCNc1ccnc2cc(Cl)ccc12`, the IC50 in the data set with Plasmodium falciparum [1] turned out to be 2560 nM; in data set [2] it was 1.27 equiv; in the data set on Plasmodium falciparum [3], 540 nM. Also, in the data set with Plasmodium falciparum [4], the “Ratio IC50” value came out at 4.7.

Regarding `Cn1cc(OCc2ccccc2)c(=O)cc1CNCCCNc1ccnc2cc(Cl)ccc12`, the IC50 in the data set on Plasmodium falciparum [1] is 1750 nM; in data set [2], 1.3 equiv; in the data set with Plasmodium falciparum [3] it was 300 nM. In addition, in the data set with Plasmodium falciparum [4], the “Ratio IC50” value amounted to 3.

`CN(CCCNc1ccnc2cc(Cl)ccc12)Cc1cc(=O)c(OCc2ccccc2)cn1C`: the IC50 stood at 2080 nM in the data set with Plasmodium falciparum [1], 1.98 equiv in data set [2] and 390 nM in the data set with Plasmodium falciparum [3]. For the same molecule, the “Ratio IC50” value in the data set with Plasmodium falciparum [4] was 6.9.

On to `Cn1cc(OCc2ccccc2)c(=O)cc1CNCCCCNc1ccnc2cc(Cl)ccc12`, for which the IC50 in the data set with Plasmodium falciparum [1] worked out at 270 nM; in data set [2], 0.42 equiv; in the data set on Plasmodium falciparum [3] it was 240 nM. Also, the “Ratio IC50” value with Plasmodium falciparum [4] was found to be 2.2.

Consider `Cn1cc(OCc2ccccc2)c(=O)cc1CNCCCCCCNc1ccnc2cc(Cl)ccc12`, for which the IC50 was found to be 150 nM in the data set on Plasmodium falciparum [1], 0.51 equiv in data set [2] and 40 nM in the data set with Plasmodium falciparum [3]. For the same molecule, the “Ratio IC50” value with Plasmodium falciparum [4] amounted to 0.4.

In the case of `O=c1cc(CNCCNc2ccnc3cc(Cl)ccc23)n(C2CC2)cc1OCc1ccccc1`, the results for the IC50 (in the data set on Plasmodium falciparum [1]; in data set [2]; in the data set on Plasmodium falciparum [3]) were 40 nM, 0.56 equiv and 210 nM, respectively. Besides, the “Ratio IC50” value in the data set with Plasmodium falciparum [4] was determined as 1.

As to `O=c1cc(CNCCCNc2ccnc3cc(Cl)ccc23)n(C2CC2)cc1OCc1ccccc1`, the IC50 is 1710 nM with Plasmodium falciparum [1], 0.22 equiv in data set [2] and 190 nM in the data set with Plasmodium falciparum [3]. In addition, the “Ratio IC50” value in the data set on Plasmodium falciparum [4] came to 7.1.

Turning to `CN(CCCNc1ccnc2cc(Cl)ccc12)Cc1cc(=O)c(OCc2ccccc2)cn1C1CC1`, the results for the IC50 in the data set on Plasmodium falciparum [1] and with Plasmodium falciparum [3] were 70 nM and 150 nM, respectively. Moreover, the “Ratio IC50” value in the data set with Plasmodium falciparum [4] stood at 0.1.

Consider `O=c1cc(CNCCCCNc2ccnc3cc(Cl)ccc23)n(C2CC2)cc1OCc1ccccc1`, for which the IC50 with Plasmodium falciparum [1] worked out at 320 nM; in data set [2], 0.82 equiv; in the data set on Plasmodium falciparum [3] it was 160 nM. Moreover, the Ratio IC50 with Plasmodium falciparum [4] turned out to be 5.3.

On to `O=c1cc(CNCCCCCCNc2ccnc3cc(Cl)ccc23)n(C2CC2)cc1OCc1ccccc1`, for which the IC50 with Plasmodium falciparum [1] was found to be 320 nM; in data set [2], 0.071 equiv; in the data set on Plasmodium falciparum [3] it was 4 nM. For the same molecule, the Ratio IC50 in the data set with Plasmodium falciparum [4] was determined as 7.5.

For the molecule `Cn1cc(O)c(=O)cc1CNCCNc1ccnc2cc(Cl)ccc12`, the IC50 in the data set on Plasmodium falciparum [1] was found to be 1450 nM; in data set [2], 0.63 equiv; in the data set on Plasmodium falciparum [3], 580 nM. In addition, in the data set on Plasmodium falciparum [4], the Ratio IC50 was 3.

In the case of `C[C@@H]1CC[C@H]2[C@@H](C)C(=O)O[C@@H]3O[C@@]4(C)CC[C@@H]1[C@]32OO4` [ARTEMISININ], the IC50 amounted to 4 nM in the data set with Plasmodium falciparum [1] and 9 nM in the data set on Plasmodium falciparum [3]. The “Ratio IC50” value in the data set with Plasmodium falciparum [4] came out at 0.4.

For `CCN(CC)CCCC(C)Nc1ccnc2cc(Cl)ccc12` (configuration not stated) [CHLOROQUINE], the IC50 in data set [2] amounted to 1.9 equiv.
